Test results: patent publication US9051326B2, “Pyrazoline derivatives and their use as selective androgen receptor modulators” (NOVARTIS AG, priority 2011, dated 2015)

target: T1, androgen receptor (AR) (Homo sapiens, UniProt P10275); experiment: AR transcriptional activation luciferase reporter assay in C2C12 cells (Test 1); assay type: cell-based; conditions: not given
T1 construct: transfecting C2C12 cells with a plasmid containing full-length AR along with an AR response element linked to luciferase; expressed in transfected cells; host or cells: mouse myoblastic C2C12 cells (ATCC CRL-1772), transient transfection with Lipofectamine 2000
T1 sequence (P10275 1-920): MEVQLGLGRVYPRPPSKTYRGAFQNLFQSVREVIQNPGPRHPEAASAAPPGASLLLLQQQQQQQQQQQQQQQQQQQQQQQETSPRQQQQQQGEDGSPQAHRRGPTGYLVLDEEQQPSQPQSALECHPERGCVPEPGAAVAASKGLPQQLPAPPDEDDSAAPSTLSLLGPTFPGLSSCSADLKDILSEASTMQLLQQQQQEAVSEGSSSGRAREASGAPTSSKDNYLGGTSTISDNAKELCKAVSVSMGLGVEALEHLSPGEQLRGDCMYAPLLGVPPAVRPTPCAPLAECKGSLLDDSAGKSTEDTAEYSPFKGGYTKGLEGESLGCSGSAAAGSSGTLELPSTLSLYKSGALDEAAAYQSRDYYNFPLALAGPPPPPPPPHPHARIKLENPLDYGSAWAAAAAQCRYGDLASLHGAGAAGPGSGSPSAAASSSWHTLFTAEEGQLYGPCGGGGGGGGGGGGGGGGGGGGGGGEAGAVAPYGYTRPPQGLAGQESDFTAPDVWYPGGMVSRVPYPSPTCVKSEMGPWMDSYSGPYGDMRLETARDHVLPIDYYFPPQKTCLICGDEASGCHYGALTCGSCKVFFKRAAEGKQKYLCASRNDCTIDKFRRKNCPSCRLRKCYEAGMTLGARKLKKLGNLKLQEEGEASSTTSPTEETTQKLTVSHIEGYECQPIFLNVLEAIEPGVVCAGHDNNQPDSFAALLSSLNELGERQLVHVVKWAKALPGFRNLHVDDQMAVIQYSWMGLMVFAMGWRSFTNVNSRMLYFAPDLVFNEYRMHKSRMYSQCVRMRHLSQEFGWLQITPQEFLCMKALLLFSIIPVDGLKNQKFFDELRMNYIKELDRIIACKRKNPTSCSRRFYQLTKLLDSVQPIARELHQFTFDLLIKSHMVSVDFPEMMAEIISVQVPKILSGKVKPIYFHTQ
Protocol: A suitable assay to determine the ability of a ligand to transcriptionally activate androgen receptor (AR) is carried out using mouse myoblastic C2C12 cells. The assay involves transfecting C2C12 cells with a plasmid containing full-length AR along with an AR response element linked to luciferase (2XIDR17). The luminescence read-out at the end of the assay is measured using Victor 3 and is a direct measure of the transcriptional activity. The assay has been validated using the reference compound, BMS-564929, for which EC50 values have been reported in a similar set-up. Other tool compounds that have been used for assay validation are GSK-420A, Andarine, putative Ostarine, and LGD-2226.
C2C12 cells were obtained from ATCC (Cat # CRL-1772) and maintained in DMEM modified to contain 4 mM L-glutamine, 4.5 g/L glucose, 1 mM sodium pyruvate and 1.5 g/L sodium bicarbonate and 10% FBS.
AR-FL in pcDNA 3.1(+) and 2XIDR17 in pGL4.26 plasmids prepared using Genelute plasmid miniprep kit from Sigma Cat # PLED35
• C2C12 cells were seeded in a 96-well plate in DMEM (Dulbecco's Modified Eagle Medium) without phenol red and containing 10% CS-FBS (Charcoal-stripped Fetal Bovine Serum) at 8000 cells/well. • The next day, cells were transfected with an equimolar ratio of (Androgen Receptor-Full length) AR-FL and 2XIDR17-Luciferase at a total plasmid concentration of 200 ng/well using Lipofectamine 2000 following manufacturer's protocol. • For the transfection, 83 ng of AR-FL and 117 ng of 2XIDR17-Luciferase were in 12.5 μl of OptiMEM—Mix A. 0.4 μl of Lipofectamine 2000 was added to 12.5 μl of OptiMEM and incubated for 5 min at room temperature—Mix B. The two mixes A and B were mixed and incubated at room temperature for an additional fifteen minutes. An additional 50 μl of OptiMEM was added, gently mixed and this mixture was added to the cells in the 96-well plate. The above quantities are requirements per well of a 96-well plate. Master mixes were made for the entire plate, with proportional quantity of reagents being used. • 5 h after transfection, compounds were added to the wells in DMEM without phenol red and containing 10% CS-FBS, maintaining a final DMSO concentration of 0.5%. A typical dose response curve starts at 10 μM and includes a 7-point, log dilution, done in triplicates. • After overnight incubation with the compounds, 100 ul of working solution of Steadyglow reagent was added to the wells. • The plates were placed in a shaker for 15 min at the end of which the lysate containing luciferase was transferred to a white flat-bottom plate and read under a luminescence setting in Victor. • Background subtracted counts (Luminescence from DMSO control wells is considered the background) are used to calculate percentage activity, expressed relative to activity with 1 μM (Dihydrotestosterone) DHT (at least two sets of triplicates for 1 μM DHT are included per plate). Data Fitting: • The EC50 curves for the compounds for 8 compound concentrations were fitted by the respective function using non-linear least-squares regression in Graphpad Prism 4.0 (Graphpad Software, San Diego, Calif., USA).

| Compound | EC50 |
| --- | --- |
| Cc1c(C2=NN3CC[C@H](O)[C@H]3[C@@H]2O)ccc(C#N)c1Cl [Example 3, 2-chloro-4-((3S,3aS,4S)-3,4-dihydroxy-3a,4,5,6-tetrahydro-3H-pyrrolo[1,2-b]pyrazol-2-yl)-3-methylbenzonitrile] | 821 nM |
| CO[C@@H]1C(c2ccc(C#N)c(Cl)c2C)=NN2C[C@@H](F)C[C@@H]12 [Example 14, 2-chloro-4-((3S,3aS,5S)-5-fluoro-3-methoxy-3a,4,5,6-tetrahydro-3H-pyrrolo[1,2-b]pyrazol-2-yl)-3-methylbenzonitrile] | 1.7 nM |
| CO[C@@H]1C(c2ccc(C#N)c(Cl)c2C)=NN2CC[C@H](F)[C@@H]12 [Example 13, 2-chloro-4-((3S,3aR,4S)-4-fluoro-3-methoxy-3a,4,5,6-tetrahydro-3H-pyrrolo[1,2-b]pyrazol-2-yl)-3-methylbenzonitrile] | 1.3 nM |
| CO[C@@H]1C(c2ccc(C#N)c(Cl)c2C)=NN2C[C@H](O)[C@H](O)[C@@H]12 [Example 25, 2-chloro-4-((3S,3aS,4R,5S)-4,5-dihydroxy-3-methoxy-3a,4,5,6-tetrahydro-3H-pyrrolo[1,2-b]pyrazol-2-yl)-3-methylbenzonitrile] | 51.2 nM |
| CO[C@@H]1C(c2ccc(C#N)c(Cl)c2C)=NN2CC(F)(F)C[C@@H]12 [Example 15, 2-chloro-4-((3S,3aS)-5,5-difluoro-3-methoxy-3a,4,5,6-tetrahydro-3H-pyrrolo[1,2-b]pyrazol-2-yl)-3-methylbenzonitrile] | 0.1 nM |
| CO[C@@H]1C(c2ccc(C#N)c(Cl)c2C)=NN2CC[C@@H](O)[C@@H]12 [Example 2, 2-chloro-4-((3S,3aS,4R)-4-hydroxy-3-methoxy-3a,4,5,6-tetrahydro-3H-pyrrolo[1,2-b]pyrazol-2-yl)-3-methylbenzonitrile] | 0.6 nM |
| COCCO[C@@H]1C(c2ccc(C#N)c(Cl)c2C)=NN2CC[C@@H](F)[C@@H]12 [Example 22, 2-chloro-4-((3S,3aR,4R)-4-fluoro-3-(2-methoxyethoxy)-3a,4,5,6-tetrahydro-3H-pyrrolo[1,2-b]pyrazol-2-yl)-3-methylbenzonitrile] | 0.98 nM |
| COCCO[C@@H]1C(c2ccc(C#N)c(Cl)c2C)=NN2CC(F)(F)C[C@@H]12 [Example 24, 2-chloro-4-((3S,3aS)-5,5-difluoro-3-(2-methoxyethoxy)-3a,4,5,6-tetrahydro-3H-pyrrolo[1,2-b]pyrazol-2-yl)-3-methylbenzonitrile] | 5.6 nM |
| COCCCO[C@@H]1C(c2ccc(C#N)c(Cl)c2C)=NN2C[C@H](O)C[C@@H]12 [Example 29] | 40 nM |
| CO[C@@H]1C(c2ccc(C#N)c(Cl)c2C)=NN2CC[C@@H](F)[C@@H]12 [Example 12, 2-chloro-4-((3S,3aR,4R)-4-fluoro-3-methoxy-3a,4,5,6-tetrahydro-3H-pyrrolo[1,2-b]pyrazol-2-yl)-3-methylbenzonitrile] | 0.1 nM |
| CO[C@@H]1C(c2ccc(C#N)c(Cl)c2C)=NN2C[C@@H](I)C[C@@H]12 [Example 19, 2-chloro-4-((3S,3aS,5S)-5-iodo-3-methoxy-3a,4,5,6-tetrahydro-3H-pyrrolo[1,2-b]pyrazol-2-yl)-3-methylbenzonitrile] | 7 nM |
| COCCO[C@@H]1C(c2ccc(C#N)c(Cl)c2C)=NN2CC(=O)C[C@@H]12 [Example 28] | 175 nM |
| Cc1c(C2=NN3CC[C@H](O)[C@H]3[C@@H]2OC(C)C)ccc(C#N)c1Cl [Example 7, 2-chloro-4-((3S,3aS,4S)-4-hydroxy-3-isopropoxy-3a,4,5,6-tetrahydro-3H-pyrrolo[1,2-b]pyrazol-2-yl)-3-methylbenzonitrile] | 4 nM |
| CCO[C@@H]1C(c2ccc(C#N)c(Cl)c2C)=NN2CC[C@@H](O)[C@@H]12 [Example 6, 2-chloro-4-((3S,3aS,4R)-3-ethoxy-4-hydroxy-3a,4,5,6-tetrahydro-3H-pyrrolo[1,2-b]pyrazol-2-yl)-3-methylbenzonitrile] | 0.6 nM |
| COCCCO[C@@H]1C(c2ccc(C#N)c(Cl)c2C)=NN2CC(F)(F)C[C@@H]12 [Example 31] | 11.4 nM |
| Cc1c(C2=NN3CC[C@@H](F)[C@H]3[C@@H]2OCCF)ccc(C#N)c1Cl [Example 23, 2-chloro-4-((3S,3aR,4R)-4-fluoro-3-(2-fluoroethoxy)-3a,4,5,6-tetrahydro-3H-pyrrolo[1,2-b]pyrazol-2-yl)-3-methylbenzonitrile] | 0.41 nM |
| CO[C@@H]1C(c2ccc(C#N)c(Cl)c2C)=NN2CC(=O)C[C@@H]12 [Example 9, 2-chloro-4-((3S,3aS)-3-methoxy-5-oxo-3a,4,5,6-tetrahydro-3H-pyrrolo[1,2-b]pyrazol-2-yl)-3-methylbenzonitrile] | 10.5 nM |

same assay, conditions: 100 nM compound; activity relative to 1 μM DHT

| Compound | % Biological activity (C2C12 cell) 100 nM |
| --- | --- |
| Cc1c(C2=NN3CC[C@H](O)[C@H]3[C@@H]2OCC2CC2)ccc(C#N)c1Cl [Example 17, 2-chloro-4-((3S,3aS,4S)-3-(cyclopropylmethoxy)-4-hydroxy-3a,4,5,6-tetrahydro-3H-pyrrolo[1,2-b]pyrazol-2-yl)-3-methylbenzonitrile] | 91% |
| CO[C@@H]1C(c2ccc(C#N)c(Cl)c2C)=NN2CC(O)(C(F)(F)F)C[C@@H]12 (stereo partly drawn) [Example 11, 2-chloro-4-((3S,3aS)-5-hydroxy-3-methoxy-5-(trifluoromethyl)-3a,4,5,6-tetrahydro-3H-pyrrolo[1,2-b]pyrazol-2-yl)-3-methylbenzonitrile] | 24% |

same assay, conditions: 5 μM compound; activity relative to 1 μM DHT

| Compound | % Biological activity (C2C12 cell) 5 μM |
| --- | --- |
| Cc1c(C2=NN3CC[C@H](O)[C@H]3[C@@H]2OCC2CC2)ccc(C#N)c1Cl [Example 17, 2-chloro-4-((3S,3aS,4S)-3-(cyclopropylmethoxy)-4-hydroxy-3a,4,5,6-tetrahydro-3H-pyrrolo[1,2-b]pyrazol-2-yl)-3-methylbenzonitrile] | 100% |
| CO[C@@H]1C(c2ccc(C#N)c(Cl)c2C)=NN2CC(O)(C(F)(F)F)C[C@@H]12 (stereo partly drawn) [Example 11, 2-chloro-4-((3S,3aS)-5-hydroxy-3-methoxy-5-(trifluoromethyl)-3a,4,5,6-tetrahydro-3H-pyrrolo[1,2-b]pyrazol-2-yl)-3-methylbenzonitrile] | 33% |

same assay, conditions: 5 μM compound; symbol defined in table footnote

| Compound | activity at 5 μM concentration (C2C12 cell) |
| --- | --- |
| CO[C@@H]1C(c2ccc(C#N)c(Cl)c2C)=NN2C[C@@H](O)C[C@@H]12 [Example 18, 2-chloro-4-((3S,3aS,5S)-5-hydroxy-3-methoxy-3a,4,5,6-tetrahydro-3H-pyrrolo[1,2-b]pyrazol-2-yl)-3-methylbenzonitrile] | ** (at 5 μM concentration, <10% activity) |

same assay, conditions: mouse myoblastic C2C12 cells transfected with AR-FL and 2XIDR17-luciferase; read-out: Biological activity (C2C12 cell) EC50

| Compound | EC50 |
| --- | --- |
| COCCO[C@@H]1C(c2ccc(C#N)c(Cl)c2C)=NN2CC[C@H](O)[C@@H]12 [Example 21, 2-chloro-4-((3S,3aS,4S)-4-hydroxy-3-(2-methoxyethoxy)-3a,4,5,6-tetrahydro-3H-pyrrolo[1,2-b]pyrazol-2-yl)-3-methylbenzonitrile] | 0.93 nM |
| CO[C@H]1CCN2N=C(c3ccc(C#N)c(Cl)c3C)[C@@H](OC)[C@H]12 [Example 20, 2-chloro-4-((3S,3aS,4S)-3,4-dimethoxy-3a,4,5,6-tetrahydro-3H-pyrrolo[1,2-b]pyrazol-2-yl)-3-methylbenzonitrile] | 7.1 nM |
